“And” between values parts separate entries of the source, which are not always exact repeats. Equal entries are not always repeated. Toxic doses and inconclusive results are not listed. How the source made its calls: active means survival T/C of 150% or more; inactive means T/C below 125% in these data.
Tested on: CD2F1 mice, L1210 leukemia sc, survival T/C
Experiment: NCI In Vivo Anticancer Drug Screen. Data for tumor model L1210 Leukemia (subcutaneous) in CD2F1 (CDF1) mice
Settings: endpoint: median survival time, higher = longer survival
Summary of the method: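 T/C ratio: treated-group survival or tumor size over vehicle-control group measurement, in mice carrying transplanted tumors.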

[1] = dose: 0.25 mg/kg/injection, schedule: Q01DX009 (ip), vehicle: saline
[2] = dose: 0.25 mg/kg/injection, schedule: Q01DX009 (sc), vehicle: saline
[3] = dose: 0.5 mg/kg/injection, schedule: Q01DX009 (sc), vehicle: saline
[4] = dose: 1.0 mg/kg/injection, schedule: Q01DX009 (sc), vehicle: saline
[5] = dose: 2.0 mg/kg/injection, schedule: Q01DX009 (ip), vehicle: saline
[6] = dose: 4.0 mg/kg/injection, schedule: Q01DX009 (ip), vehicle: saline

Measured: T/C

COc1cccc2c1C(=O)c1c(O)c3c(c(O)c1C2=O)C[C@@](O)(C(=O)CO)C[C@@H]3OC1CC(N)C(O)C(C)O1 (some centres not stated)
inactive: [1] 101 % of control and 98 % of control | [2] 98 % of control | dose: 0.5 mg/kg/injection, schedule: Q01DX009 (ip), vehicle: saline 103 % of control and 107 % of control and 98 % of control | [3] 101 % of control | dose: 1.0 mg/kg/injection, schedule: Q01DX009 (ip), vehicle: saline 100 % of control and 106 % of control and 123 % of control | [4] 110 % of control | [5] 111 % of control and 115 % of control and 123 % of control | dose: 2.0 mg/kg/injection, schedule: Q01DX009 (sc), vehicle: saline 117 % of control and 120 % of control | dose: 2.5 mg/kg/injection, schedule: Q01DX009 (sc), vehicle: saline 114 % of control | dose: 3.0 mg/kg/injection, schedule: Q01DX009 (sc), vehicle: saline 116 % of control | dose: 3.5 mg/kg/injection, schedule: Q01DX009 (sc), vehicle: saline 120 % of control | [6] 110 % of control and 92 % of control and 97 % of control | dose: 5.0 mg/kg/injection, schedule: Q01DX009 (sc), vehicle: saline 116 % of control | dose: 6.0 mg/kg/injection, schedule: Q01DX009 (sc), vehicle: saline 102 % of control | dose: 8.0 mg/kg/injection, schedule: Q01DX009 (sc), vehicle: saline 113 % of control and 89 % of control

COc1cccc2c1C(=O)c1c(O)c3c(c(O)c1C2=O)CC(O)(C(C)=O)CC3OC1CC(N)C(O)C(C)O1 (configuration not stated)
inactive: dose: 2.9 mg/kg/injection, schedule: Q01DX009 (ip), vehicle: saline 96 % of control | dose: 5.8 mg/kg/injection, schedule: Q01DX009 (ip), vehicle: saline 96 % of control | dose: 11.7 mg/kg/injection, schedule: Q01DX009 (ip), vehicle: saline 98 % of control | dose: 23.4 mg/kg/injection, schedule: Q01DX009 (ip), vehicle: saline 103 % of control | dose: 46.8 mg/kg/injection, schedule: Q01DX009 (ip), vehicle: saline 108 % of control

Nc1n[nH]c(N)n1
inactive: dose: 259.0 mg/kg/injection, schedule: Q01DX Z (sc), vehicle: water 100 % of control | dose: 432.0 mg/kg/injection, schedule: Q01DX Z (sc), vehicle: water 113 % of control | dose: 720.0 mg/kg/injection, schedule: Q01DX Z (sc), vehicle: water 118 % of control | dose: 1200.0 mg/kg/injection, schedule: Q01DX Z (sc), vehicle: water 122 % of control

COC12C(COC(N)=O)C3=C(C(=O)C(C)=C(N)C3=O)N1CC1C2N1C (configuration not stated)
inactive: [5] 101 % of control | dose: 3.75 mg/kg/injection, schedule: Q01DX009 (ip), vehicle: saline 105 % of control | [6] 120 % of control | dose: 7.5 mg/kg/injection, schedule: Q01DX009 (ip), vehicle: saline 110 % of control | dose: 15.0 mg/kg/injection, schedule: Q01DX009 (ip), vehicle: saline 117 % of control | dose: 16.0 mg/kg/injection, schedule: Q01DX009 (ip), vehicle: saline 101 % of control

Oc1ccc(F)c2cccnc12
inactive: dose: 39.0 mg/kg/injection, schedule: Q01DX Z (sc), vehicle: other 100 % of control | dose: 65.0 mg/kg/injection, schedule: Q01DX Z (sc), vehicle: other 100 % of control | dose: 108.0 mg/kg/injection, schedule: Q01DX Z (sc), vehicle: other 100 % of control | dose: 180.0 mg/kg/injection, schedule: Q01DX Z (sc), vehicle: other 100 % of control

CNCCN=c1ccc2c3c1c(O)c1c(O)ccc(=O)c1c3[nH]n2CCNCCO
active: dose: 3.0 mg/kg/injection, schedule: Q01DX009 (ip), vehicle: water 206 % of control
inactive: dose: 1.08 mg/kg/injection, schedule: Q01DX009 (ip), vehicle: water 117 % of control | dose: 5.0 mg/kg/injection, schedule: Q01DX009 (ip), vehicle: water 124 % of control | dose: 8.3 mg/kg/injection, schedule: Q01DX009 (ip), vehicle: water 89 % of control

CC[C@]1(O)C[C@H]2CN(CCc3c([nH]c4ccccc34)[C@@](C(=O)OC)(c3cc4c(cc3OC)N(C=O)[C@H]3[C@@](O)(C(=O)OC)[C@H](OC(C)=O)[C@]5(CC)C=CCN6CC[C@]43[C@@H]65)C2)C1
inactive: dose: 0.15 mg/kg/injection, schedule: Q01DX009 (ip), vehicle: saline 98 % of control | dose: 0.2 mg/kg/injection, schedule: Q01DX009 (ip), vehicle: saline 101 % of control | [1] 98 % of control | [2] 113 % of control | [3] 108 % of control | dose: 0.75 mg/kg/injection, schedule: Q01DX009 (sc), vehicle: saline 104 % of control and 92 % of control | [4] 102 % of control | dose: 1.25 mg/kg/injection, schedule: Q01DX001 (iv), vehicle: water 120 % of control | dose: 1.25 mg/kg/injection, schedule: Q01DX001 (sc), vehicle: water 120 % of control | dose: 1.25 mg/kg/injection, schedule: Q01DX009 (sc), vehicle: saline 111 % of control | dose: 1.5 mg/kg/injection, schedule: Q01DX009 (sc), vehicle: saline 107 % of control | dose: 2.5 mg/kg/injection, schedule: Q01DX001 (iv), vehicle: water 120 % of control | dose: 63.0 micrograms/kg/injection, schedule: Q01DX009 (ip), vehicle: saline 101 % of control | dose: 63.0 micrograms/kg/injection, schedule: Q01DX009 (sc), vehicle: saline 103 % of control | dose: 125.0 micrograms/kg/injection, schedule: Q01DX009 (ip), vehicle: saline 98 % of control | dose: 125.0 micrograms/kg/injection, schedule: Q01DX009 (sc), vehicle: saline 103 % of control | dose: 250.0 micrograms/kg/injection, schedule: Q01DX009 (ip), vehicle: saline 96 % of control | dose: 250.0 micrograms/kg/injection, schedule: Q01DX009 (sc), vehicle: saline 107 % of control | dose: 500.0 micrograms/kg/injection, schedule: Q01DX009 (ip), vehicle: saline 96 % of control | dose: 500.0 micrograms/kg/injection, schedule: Q01DX009 (sc), vehicle: saline 114 % of control

Nc1nc2n[nH]nc2c(=O)[nH]1
inactive: dose: 50.0 mg/kg/injection, schedule: Q01DX009 (sc), vehicle: saline 122 % of control | dose: 75.0 mg/kg/injection, schedule: Q01DX009 (sc), vehicle: saline 114 % of control

Cc1cc(NCCCCCCCNc2cc(C)nc3cc(N)ccc23)c2ccc(N)cc2n1
active: dose: 12.5 mg/kg/injection, schedule: Q01DX009 (ip), vehicle: water 156 % of control and 175 % of control
inactive: dose: 1.56 mg/kg/injection, schedule: Q01DX009 (ip), vehicle: water 100 % of control and 104 % of control and 98 % of control | dose: 3.12 mg/kg/injection, schedule: Q01DX009 (ip), vehicle: water 109 % of control and 110 % of control and 121 % of control | dose: 6.25 mg/kg/injection, schedule: Q01DX009 (ip), vehicle: water 120 % of control | dose: 25.0 mg/kg/injection, schedule: Q01DX009 (ip), vehicle: water 120 % of control

C[C@]12C=CC(=O)C=C1CC[C@@H]1[C@@H]2C(=O)C[C@@]2(C)[C@H]1CC[C@]2(O)C(=O)CO
inactive: dose: 180.0 mg/kg/injection, schedule: Q01DX Z (sc), vehicle: water 122 % of control | dose: 500.0 mg/kg/injection, schedule: Q#A X Z (sc), vehicle: water 122 % of control
active: dose: 180.0 mg/kg/injection, schedule: Q02DX Z (sc), vehicle: water 154 % of control

CNNCc1ccc(C(=O)NC(N)=O)cc1
inactive: dose: 50.0 mg/kg/injection, schedule: Q01DX Z (sc), vehicle: saline 94 % of control | dose: 100.0 mg/kg/injection, schedule: Q01DX Z (sc), vehicle: saline 105 % of control | dose: 200.0 mg/kg/injection, schedule: Q01DX Z (sc), vehicle: saline 105 % of control | dose: 400.0 mg/kg/injection, schedule: Q01DX Z (sc), vehicle: saline 94 % of control

NC(=O)c1ncn2c(=O)n(CCCl)nnc12
inactive: dose: 1.56 mg/kg/injection, schedule: Q01DX009 (ip), vehicle: suspension in saline 123 % of control | dose: 50.0 mg/kg/injection, schedule: Q01DX009 (ip), vehicle: suspension in saline 100 % of control
active: dose: 6.25 mg/kg/injection, schedule: Q01DX009 (ip), vehicle: suspension in saline 195 % of control | dose: 12.5 mg/kg/injection, schedule: Q01DX009 (ip), vehicle: suspension in saline 309 % of control | dose: 25.0 mg/kg/injection, schedule: Q01DX009 (ip), vehicle: suspension in saline 206 % of control

From PubChem BioAssay AID258 (DTP/NCI, 2004)
